pIC50: −log10 of the molar value.
Target: USP7 (Homo sapiens, UniProt Q93009)
Experiment: USP7 inhibitory potency (Table 1)
Format: biochemical

Chain of USP7 (Q93009 whole entry): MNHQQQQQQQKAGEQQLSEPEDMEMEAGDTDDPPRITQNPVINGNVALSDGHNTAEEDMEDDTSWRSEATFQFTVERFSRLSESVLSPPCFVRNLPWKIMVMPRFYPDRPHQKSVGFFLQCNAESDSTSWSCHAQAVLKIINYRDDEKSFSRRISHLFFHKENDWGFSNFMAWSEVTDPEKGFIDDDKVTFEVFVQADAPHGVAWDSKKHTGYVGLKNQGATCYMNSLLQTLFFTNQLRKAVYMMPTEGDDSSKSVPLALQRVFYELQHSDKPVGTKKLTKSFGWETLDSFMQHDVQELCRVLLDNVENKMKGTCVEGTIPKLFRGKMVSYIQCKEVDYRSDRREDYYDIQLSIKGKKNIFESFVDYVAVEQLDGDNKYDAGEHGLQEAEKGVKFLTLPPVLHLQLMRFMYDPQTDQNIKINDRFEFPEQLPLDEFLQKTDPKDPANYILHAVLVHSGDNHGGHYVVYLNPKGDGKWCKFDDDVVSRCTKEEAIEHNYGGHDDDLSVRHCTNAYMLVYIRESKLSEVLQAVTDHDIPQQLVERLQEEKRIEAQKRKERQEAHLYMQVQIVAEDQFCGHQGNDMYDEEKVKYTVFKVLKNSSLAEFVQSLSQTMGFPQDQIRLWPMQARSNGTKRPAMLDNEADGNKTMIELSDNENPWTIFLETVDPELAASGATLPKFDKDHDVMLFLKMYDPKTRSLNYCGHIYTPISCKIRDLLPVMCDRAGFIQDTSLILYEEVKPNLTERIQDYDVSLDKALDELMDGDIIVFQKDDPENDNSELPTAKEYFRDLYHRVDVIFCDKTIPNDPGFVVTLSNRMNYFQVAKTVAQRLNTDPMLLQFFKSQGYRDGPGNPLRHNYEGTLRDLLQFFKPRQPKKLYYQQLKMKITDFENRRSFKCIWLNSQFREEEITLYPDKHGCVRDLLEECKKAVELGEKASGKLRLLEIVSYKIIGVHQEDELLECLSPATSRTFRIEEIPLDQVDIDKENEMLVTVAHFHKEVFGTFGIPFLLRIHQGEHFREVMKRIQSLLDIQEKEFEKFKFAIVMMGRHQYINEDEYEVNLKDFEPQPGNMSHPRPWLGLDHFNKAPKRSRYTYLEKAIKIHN

| pIC50 | SMILES |
| --- | --- |
| 4.52 to 5.00 | O=C([C@H]1Cc2cc(Cl)cc(-c3ccnc4cc(CO)sc34)c2O1)N1CC[C@H](O)C1 [((R)-5-chloro-7-(2-(hydroxymethyl)thieno[3,2-b]pyridin-7-yl)-2,3-dihydrobenzofuran-2-yl)((S)-3-hydroxypyrrolidin-1-yl)methanone] |
| > 6.00 | Clc1cc2c(c(-c3ccnc4cc(Cl)ccc34)c1)O[C@@H](c1onc3c1CNCC3)C2 [(R)-3-(5-chloro-7-(7-chloroquinolin-4-yl)-2,3-dihydrobenzofuran-2-yl)-4,5,6,7-tetrahydroisoxazolo[4,3-c]pyridine] |
| > 6.00 | CCC(CO)c1cc2nccc(-c3cc(Cl)cc4c3O[C@@H](C(=O)N3CCNCC3)C4)c2s1 (stereo partly drawn) [((2R)-5-chloro-7-(2-(1-hydroxybutan-2-yl)thieno[3,2-b]pyridin-7-yl)-2,3-dihydrobenzofuran-2-yl)(piperazin-1-yl)methanone] |
| > 6.00 | Cc1cc2ncnc(-c3cc(Cl)cc4c3O[C@@H](c3onc5c3CNCC5)C4)c2s1 [(R)-3-(5-chloro-7-(6-methylthieno[3,2-d]pyrimidin-4-yl)-2,3-dihydrobenzofuran-2-yl)-4,5,6,7-tetrahydroisoxazolo[4,3-c]pyridine] |
| > 6.00 | CCC(O)c1cc2ncnc(-c3cc(Cl)cc4c3O[C@@H](c3onc5c3CNCC5)C4)c2s1 (stereo partly drawn) [drawing 1596, 1-(4-((R)-5-chloro-2-(4,5,6,7-tetrahydroisoxazolo[4,3-c]pyridin-3-yl)-2,3-dihydrobenzofuran-7-yl)thieno[3,2-d]pyrimidin-6-yl)propan-1-ol] |
| 5.00 to 6.00 | NC(=O)c1ccc2c(-c3cc(Cl)cc4c3O[C@@H](c3onc5c3CNCC5)C4)ccnc2c1 [(R)-4-(5-chloro-2-(4,5,6,7-tetrahydroisoxazolo[4,3-c]pyridin-3-yl)-2,3-dihydrobenzofuran-7-yl)quinoline-7-carboxamide] |
| > 6.00 | CCC(O)c1cc2nccc(-c3cc(Cl)cc4c3OC(c3onc5c3CN(C(C)C)CC5)C4)c2s1 (stereo not drawn) [1-(7-(5-chloro-2-(5-isopropyl-4,5,6,7-tetrahydroisoxazolo[4,3-c]pyridin-3-yl)-2,3-dihydrobenzofuran-7-yl)thieno[3,2-b]pyridin-2-yl)propan-1-ol] |
| > 6.00 | CCC(O)c1cc2nccc(-c3cc(Cl)cc4c3O[C@@H](c3onc5c3CN(C)CC5)C4)c2s1 (stereo partly drawn) [drawing 1573, 1-(7-((R)-5-chloro-2-(5-methyl-4,5,6,7-tetrahydroisoxazolo[4,3-c]pyridin-3-yl)-2,3-dihydrobenzofuran-7-yl)thieno[3,2-b]pyridin-2-yl)propan-1-ol] |
| > 6.00 | CC(O)c1ccc2c(-c3cc(Cl)cc4c3O[C@@H](C(=O)N3CCNCC3)C4)ccnc2c1 (stereo partly drawn) [((2R)-5-chloro-7-(7-(1-hydroxyethyl)quinolin-4-yl)-2,3-dihydrobenzofuran-2-yl)(piperazin-1-yl)methanone] |
| 4.52 to 5.00 | O=C([C@H]1Cc2cc(Cl)cc(-c3ncnc4ccoc34)c2O1)N1CCNCC1 [(R)-(5-chloro-7-(furo[3,2-d]pyrimidin-4-yl)-2,3-dihydrobenzofuran-2-yl)(piperazin-1-yl)methanone] |
| > 6.00 | O=C([C@H]1Cc2cc(Cl)cc(-c3ccnc4cc(CO)sc34)c2O1)N1CCC(N2CCCCC2)CC1 [(R)-[1,4′-bipiperidin]-1′-yl(5-chloro-7-(2-(hydroxymethyl)thieno[3,2-b]pyridin-7-yl)-2,3-dihydrobenzofuran-2-yl)methanone] |
| > 6.00 | CCC(O)C1Cc2nccc(-c3cc(Cl)cc4c3O[C@@H](C(=O)N3CCNCC3)C4)c2C1 (stereo partly drawn) [((2R)-5-chloro-7-(6-(1-hydroxypropyl)-6,7-dihydro-5H-cyclopenta[b]pyridin-4-yl)-2,3-dihydrobenzofuran-2-yl)(piperazin-1-yl)methanone] |
| > 6.00 | CN(C)C1CCc2noc([C@H]3Cc4cc(Cl)cc(-c5ccnc6cc(CO)sc56)c4O3)c2C1 (stereo partly drawn) [(7-((2R)-5-chloro-2-(5-(dimethylamino)-4,5,6,7-tetrahydrobenzo[c]isoxazol-3-yl)-2,3-dihydrobenzofuran-7-yl)thieno[3,2-b]pyridin-2-yl)methanol] |
| 5.00 to 6.00 | CS(=O)(=O)N1CCc2noc([C@H]3Cc4cc(Cl)cc(-c5ncnc6ccoc56)c4O3)c2C1 [(R)-3-(5-chloro-7-(furo[3,2-d]pyrimidin-4-yl)-2,3-dihydrobenzofuran-2-yl)-5-(methylsulfonyl)-4,5,6,7-tetrahydroisoxazolo[4,3-c]pyridine] |
| > 6.00 | CC(NCc1cc2nccc(-c3cc(Cl)cc4c3O[C@@H](c3onc5c3CNCC5)C4)c2s1)C(F)(F)F (stereo partly drawn) [N-((7-((R)-5-chloro-2-(4,5,6,7-tetrahydroisoxazolo[4,3-c]pyridin-3-yl)-2,3-dihydrobenzofuran-7-yl)thieno[3,2-b]pyridin-2-yl)methyl)-1,1,1-trifluoropropan-2-amine] |
| 5.00 to 6.00 | O=C(C1Cc2cc(Cl)cc(-c3ccnc4[nH]ccc34)c2O1)N1CCC(N2CCOCC2)CC1 (stereo not drawn) [(5-chloro-7-(1H-pyrrolo[2,3-b]pyridin-4-yl)-2,3-dihydrobenzofuran-2-yl)(4-morpholinopiperidin-1-yl)methanone] |
| 5.00 to 6.00 | O=C(C1Cc2cc(Cl)cc(-c3ccnc4[nH]c(Cc5cc6ccccc6cn5)cc34)c2O1)N1CCNCC1 (stereo not drawn) [(5-chloro-7-(2-(isoquinolin-3-ylmethyl)-1H-pyrrolo[2,3-b]pyridin-4-yl)-2,3-dihydrobenzofuran-2-yl)(piperazin-1-yl)methanone] |

| pIC50 | SMILES |
| --- | --- |
| 5.00 to 6.00 | CN1CCC(CN2CCN(C(=O)C3Cc4cc(Cl)cc(-c5ccnc6[nH]ccc56)c4O3)CC2)CC1 (stereo not drawn) [(5-chloro-7-(1H-pyrrolo[2,3-b]pyridin-4-yl)-2,3-dihydrobenzofuran-2-yl)(4-((1-methylpiperidin-4-yl)methyl)piperazin-1-yl)methanone] |
| > 6.00 | CC(=O)NCCc1cc2nccc(-c3cc(Cl)cc4c3O[C@@H](C(=O)N3CCNCC3)C4)c2s1 [(R)-N-(2-(7-(5-chloro-2-(piperazine-1-carbonyl)-2,3-dihydrobenzofuran-7-yl)thieno[3,2-b]pyridin-2-yl)ethyl)acetamide] |
| 5.00 to 6.00 | OCC1(CO)Cc2nccc(-c3cc(Cl)cc4c3O[C@@H](c3onc5c3CNCC5)C4)c2C1 [(R)-(4-(5-chloro-2-(4,5,6,7-tetrahydroisoxazolo[4,3-c]pyridin-3-yl)-2,3-dihydrobenzofuran-7-yl)-6,7-dihydro-5H-cyclopenta[b]pyridine-6,6-diyl)dimethanol] |
| > 6.00 | O=C([C@H]1Cc2cc(Cl)cc(-c3ccnc4cc(Cn5cnccc5=O)sc34)c2O1)N1CCNCC1 [(R)-3-((7-(5-chloro-2-(piperazine-1-carbonyl)-2,3-dihydrobenzofuran-7-yl)thieno[3,2-b]pyridin-2-yl)methyl)pyrimidin-4(3H)-one] |
| > 6.00 | N#Cc1ccc2c(-c3cc(Cl)cc4c3OC(C(=O)N3CCNCC3)C4)ccnc2c1 (stereo not drawn) [4-(5-chloro-2-(piperazine-1-carbonyl)-2,3-dihydrobenzofuran-7-yl)quinoline-7-carbonitrile] |
| 5.00 to 6.00 | NC(=O)C1Cc2nccc(-c3cc(Cl)cc4c3O[C@@H](c3onc5c3CNCC5)C4)c2C1 (stereo partly drawn) [4-((R)-5-chloro-2-(4,5,6,7-tetrahydroisoxazolo[4,3-c]pyridin-3-yl)-2,3-dihydrobenzofuran-7-yl)-6,7-dihydro-5H-cyclopenta[b]pyridine-6-carboxamide] |
| > 6.00 | CC(=O)N(C)Cc1cc2nccc(-c3cc(Cl)cc4c3O[C@@H](C(=O)N3CCNCC3)C4)c2s1 [(R)-N-((7-(5-chloro-2-(piperazine-1-carbonyl)-2,3-dihydrobenzofuran-7-yl)thieno[3,2-b]pyridin-2-yl)methyl)-N-methylacetamide] |
| > 6.00 | O=C([C@H]1Cc2cc(Cl)cc(-c3ccnc4cc(CCN5C(=O)CCC5=O)sc34)c2O1)N1CCNCC1 [(R)-1-(2-(7-(5-chloro-2-(piperazine-1-carbonyl)-2,3-dihydrobenzofuran-7-yl)thieno[3,2-b]pyridin-2-yl)ethyl)pyrrolidine-2,5-dione] |
| 5.00 to 6.00 | O=C(N[C@@H]1CCCNC1)C1Cc2cc(Cl)cc(-c3ccnc4[nH]ccc34)c2O1 (stereo partly drawn) [5-Chloro-N-((R)-piperidin-3-yl)-7-(1H-pyrrolo[2,3-b]pyridin-4-yl)-2,3-dihydrobenzofuran-2-carboxamide] |
| > 6.00 | CS(=O)(=O)NCc1cc2nccc(-c3cc(Cl)cc4c3O[C@@H](c3onc5c3CNCC5)C4)c2s1 [(R)-N-((7-(5-chloro-2-(4,5,6,7-tetrahydroisoxazolo[4,3-c]pyridin-3-yl)-2,3-dihydrobenzofuran-7-yl)thieno[3,2-b]pyridin-2-yl)methyl)methanesulfonamide] |
| > 6.00 | Cc1cc2ncnc(-c3cc(Cl)cc4c3O[C@@H](C(=O)N3CCNCC3)C4)c2s1 [(R)-(5-chloro-7-(6-methylthieno[3,2-d]pyrimidin-4-yl)-2,3-dihydrobenzofuran-2-yl)(piperazin-1-yl)methanone] |
| 4.52 to 5.00 | COc1ccc2nccc(-c3cc(Cl)cc4c3O[C@@H](c3onc5c3CNCC5)C4)c2c1 [(R)-3-(5-chloro-7-(6-methoxyquinolin-4-yl)-2,3-dihydrobenzofuran-2-yl)-4,5,6,7-tetrahydroisoxazolo[4,3-c]pyridine] |
| 4.52 to 5.00 | O=C(C1Cc2cc(Cl)cc(-c3ccnc4[nH]c(-c5ccccc5)cc34)c2O1)N1CCNCC1 (stereo not drawn) [(5-chloro-7-(2-phenyl-1H-pyrrolo[2,3-b]pyridin-4-yl)-2,3-dihydrobenzofuran-2-yl)(piperazin-1-yl)methanone] |
| > 6.00 | O=C([C@H]1Cc2cc(Cl)cc(-c3ccnc4cc(CN5CCCCS5(=O)=O)sc34)c2O1)N1CCNCC1 [(R)-(5-chloro-7-(2-((1,1-dioxido-1,2-thiazinan-2-yl)methyl)thieno[3,2-b]pyridin-7-yl)-2,3-dihydrobenzofuran-2-yl)(piperazin-1-yl)methanone] |
| > 6.00 | CC(=O)NC(C)c1cc2nccc(-c3cc(Cl)cc4c3O[C@@H](c3onc5c3CNCC5)C4)c2s1 (stereo partly drawn) [N-(1-(7-((R)-5-chloro-2-(4,5,6,7-tetrahydroisoxazolo[4,3-c]pyridin-3-yl)-2,3-dihydrobenzofuran-7-yl)thieno[3,2-b]pyridin-2-yl)ethyl)acetamide] |
| > 6.00 | CCC(OC)c1cc2nccc(-c3cc(Cl)cc4c3O[C@@H](c3onc5c3CNCC5)C4)c2s1 (stereo partly drawn) [3-((2R)-5-chloro-7-(2-(1-methoxypropyl)thieno[3,2-b]pyridin-7-yl)-2,3-dihydrobenzofuran-2-yl)-4,5,6,7-tetrahydroisoxazolo[4,3-c]pyridine] |

Reference: patent US20210317134A1, “UBIQUITIN-SPECIFIC-PROCESSING PROTEASE 7 (USP7) MODULATORS AND USES THEREOF” (RAPT THERAPEUTICS, INC., priority 2019, published 2021)
